Measured values as given in patent publication US20140249097A1, “Inhibition of HIF-1 activation for Anti-Tumor and Anti-Inflammatory responses” (priority 2010, published 2014).
Where two headings read alike, the source gives them in different places. Peptide text beside a SMILES is read from it. * marks the point of attachment. Cbz = O=C(OCc1ccccc1)*

What was measured:
4T1ODD-luc cells = test: Cell Titer-Glo cell viability assay; settings: 10 μg/ml 1400W or 15 μM EGCG with 1 μg/ml doxorubicin, to day 3
Text: Cell viability was quantified by Cell Titer-Glo luminescent cell viability assay (Promega, Madison, Wis., United States of America) daily until day 3. The daily cell viability was normalized to the initial cell viability on day 0 within each group.

iNOS = test: Western blotting of iNOS in 4T1ODD-luc cells; format: cell-based, mouse; settings: for inhibition of iNOS expression in doxorubicin-treated cells / doxorubicin-induced iNOS upregulation: with doxorubicin; for inhibition of iNOS expression in doxorubicin-treated cells: 24 h; for doxorubicin-induced iNOS upregulation: 48 h; for basal level of iNOS expression: without doxorubicin, 24 h and 48 h, 10 μg/ml 1400W or 15 μM EGCG
Procedure: (§1) Cell nuclear proteins were extracted using the NucBuster protein extraction kit (Novagen, Gibbstown, N.J., United States of America). Total cell lysates or cell nuclear extractions were quantified using a protein assay reagent (Bio-Rad). Equal amounts of protein sample were separated by Bis-HCl gel (Bio-Rad) and transferred to a […] Immun-Blot PVDF membrane (Bio-Rad).

STAT1 = test: Western blotting of STAT1 and phospho-STAT1 in 4T1ODD-luc cells; format: cell-based, mouse; settings: 48 hours post-treatment
Procedure: as §1

nitric oxide = test: Flow cytometry of intracellular nitric oxide (DAF-FM) in 4T1ODD-luc cells; format: cell-based, mouse; settings: 10 μg/ml 1400W or 15 μM EGCG with 1 μg/ml doxorubicin, 48 hours
Procedure: To detect intracellular nitric oxide levels, 1×10^6 4 T1ODD-luc cells were plated per 10-cm cell culture dish with 8 ml of cell culture medium. Doxorubicin (1 μg/ml and 5 μg/ml) or an equal volume of control solvent was added into the cell culture medium the next day and treatment continued for 48 hours. […] Equal amounts of solvent were added for the control group. To quantify intracellular nitric oxide, a single cell suspension was made after trypsinization. 2 ml of 5 uM nitric oxide-specific probe DAF-FM diacetate (4-amino-5-methylamino-2′,7′-difluorofluorescein diacetate) (Invitrogen) were incubated with each cell sample at room temperature in darkness for 30 minutes. The cells were washed with PBS and centrifuged to remove the excess DAF-FM diacetate probe. The cells were resuspended into 500 ul of phenol-free DMEM and incubated for another 20 minutes for complete intracellular deacetylation of the probe. The mean fluorescence intensity of the deacetylated DAF-FM reacted with nitric oxide was quantified by FACSCalibur flow cytometer in FITC channel (Becton Dickinson, Franklin Lakes, N.J., United States of America).

[1] = test system: 4T1 (murine mammary adenocarcinoma); test: Tumor growth delay, radiotherapy plus L-NAME, 4T1; format: in vivo, mice; settings: 4T1 tumors, 3×6 Gy, L-NAME in drinking water
Text: (§2) Female NIH Swiss nude mice, C57BL/6 mice were purchased from the National Cancer Institute (NCI; Fredrick, Md., United States of America). Mice with a genetic disruption of the inducible […] gene (C57BL/6 iNOS^−/−) were obtained from the Jackson Laboratory (Bar Harbor, Me., United States of America). Female BALB/c mice were obtained from Charles River Laboratories (Raleigh, N.C., United States of America). Animals were maintained and cared for in accordance with the Duke University Institutional Animal Care and Use Committee guidelines. For tumor implantation, 4T1 tumors were grown in nude mice or in syngeneic BALB/c mice, and B16F10 melanoma in syngeneic C57BL/6 or iNOS^−/− mice. About 5×10^5 wild type- or luciferase reporter gene-transfected tumor cells were injected subcutaneously (s.c.) into mice in 50 μl of PBS solution in the hind legs of ketamine/xylazine-anesthetized mice. When the tumors reached 6-8 mm in diameter, mice were randomly assigned to experimental groups. To image the luciferase activity, single dose of 6 Gy X-ray was given to the tumor on the right leg and this day was set as day 0. The luciferase activity was imaged everyday or every other day for ten days. For the tumor growth delay assay, radiotherapy was employed in its clinical mode: tumors were treated with 3 fractions of 6 Gy every other day from day 0.

B16F10 (murine melanoma) = test: Tumor growth delay, radiotherapy plus L-NAME, B16F10; format: in vivo, mice; settings: B16F10 tumors, 3×6 Gy, L-NAME in drinking water
Text: as §2

tumor vasculature = test: CD31 staining of tumor vasculature; format: in vivo, mice; settings: L-NAME in conjunction with radiotherapy, tumors excised day 10, 4T1 and B16F10
Procedure: Vessel staining was performed on tumor cryoslices by using the VECTASTAIN® ABC and the NOVARED™ kits from Vector Laboratories (Burlingame, Calif., United States of America), according to the manufacturer's protocol. The primary anti-CD31 antibody (Santa Cruz Biotechnology, Santa Cruz, Calif.) was labeled with a secondary biotinylated anti-rabbit antibody (Jackson ImmunoResearch Labs, Inc.). Slices were counterstained using Harris' hematoxilin. Vascular density was determined by counting CD31-positive structures in 5 random fields per tumor.

HIF-1α [2] = test: Western blotting of HIF-1α in 4T1ODD-luc cells; format: cell-based, mouse; settings: 4T1ODD-luc cells, post-treatment day 2
Procedure: as §1

HIF-1α [3] = test: Western blotting of HIF-1α in MCF-7 cells; format: cell-based, human; settings: MCF-7 cells, post-treatment day 3
Procedure: as §1

C533S-ODD-luc = C533S-ODD-luc reporter in 4T1 cells in vitro; format: cell-based, murine
HIF-1α [4] = format: cell-based, murine

## CC(=N)NCc1cccc(CN)c1 [1400W, N-(3-(aminomethyl)benzyl)acetamidine]
4T1ODD-luc cells
  effect of combination on cytotoxicity of doxorubicin (cell viability): did not attenuate the cytotoxicity of doxorubicin
iNOS
  inhibition of iNOS expression in doxorubicin-treated cells: not obvious
  doxorubicin-induced iNOS upregulation: successfully suppressed the doxorubicin-induced iNOS upregulation
  basal level of iNOS expression: suppressed the basal level of iNOS expression
STAT1
  doxorubicin-induced upregulation of STAT1 expression and activation: potently suppressed the doxorubicin-induced upregulation of STAT1 expression and activation
Nitric oxide
  doxorubicin-induced increase of intracellular NO: significantly suppressed the doxorubicin-induced increase of intracellular NO

## COC(=O)[C@@H](N)CCCNC(=N)N[N+](=O)[O-] [L-NAME, Nω-nitro-L-arginine methyl ester]
[1]
  tumor growth delay, therapeutic efficacy of radiotherapy with L-NAME: significantly enhanced the therapeutic efficacy of radiotherapy
B16F10 (murine melanoma)
  tumor growth delay, therapeutic efficacy of radiotherapy with L-NAME: significantly enhanced the therapeutic efficacy of radiotherapy
Tumor vasculature
  tumor vasculature (CD31+ vascular density): significantly reduced tumor vasculature

## O=C(O[C@@H]1Cc2c(O)cc(O)cc2O[C@@H]1c1cc(O)c(O)c(O)c1)c1cc(O)c(O)c(O)c1 [EGCG, epigallocatechin gallate]
HIF-1α [2]
  doxorubicin-induced normoxic HIF-1α accumulation: successfully suppressed the doxorubicin-induced normoxic HIF-1α accumulation
4T1ODD-luc cells
  effect of combination on cytotoxicity of doxorubicin (cell viability): did not attenuate the cytotoxicity of doxorubicin
iNOS
  inhibition of iNOS expression in doxorubicin-treated cells: not obvious
  doxorubicin-induced iNOS upregulation: successfully suppressed the doxorubicin-induced iNOS upregulation
  basal level of iNOS expression: suppressed the basal level of iNOS expression
STAT1
  doxorubicin-induced upregulation of STAT1 expression and activation: potently suppressed the doxorubicin-induced upregulation of STAT1 expression and activation
Nitric oxide
  doxorubicin-induced increase of intracellular NO: significantly suppressed the doxorubicin-induced increase of intracellular NO
HIF-1α [3]
  doxorubicin-induced normoxic HIF-1α accumulation: successfully suppressed the doxorubicin-induced normoxic HIF-1α accumulation

## [Cl-].[Cl-].[Co+2] [CoCl2]
C533S-ODD-luc
  C533S-ODD-luc induction: significant inductions, similar to wild-type
HIF-1α [4]
  luminescence arising from ODD-luc reporter gene expression: rose significantly

## N[C@@H](CCC(=O)N[C@@H](CSN=O)C(=O)NCC(=O)O)C(=O)O [GSNO, S-nitrosoglutathione]
C533S-ODD-luc; 4T1 cells, GSNO 1 mM
  C533S-ODD-luc expression induced by GSNO: almost absent

## CC1(C)N([O])C(c2ccc(C(=O)[O-])cc2)=[N+]([O-])C1(C)C.[K+] [carboxy-PTIO, potassium 2-(4-carboxyphenyl)-4,4,5,5-tetramethylimidazoline-1-oxyl-3-oxide]
HIF-1α [4]
  effect on HIF-1α activation (ODD-luc) by GSNO: effectively suppressed HIF-1α activation by GSNO

## CC(C)C[C@@H](C=O)NC(=O)[C@H](CC(C)C)NC(=O)[C@H](CC(C)C)NC(=O)OCc1ccccc1 [MG132] (Cbz-Leu-Leu-Leu-aldehyde)
HIF-1α [4]; 4T1 cells, CoCl2 240 μM for 12 hrs, MG132 10 μM for 12 hrs, vs background
  luminescence arising from ODD-luc reporter gene expression: rose significantly
